{"source": "patent US20230172958A1", "about": "“USE OF COMPOUNDS FOR TREATING VIRAL INFECTIONS” (priority 2020, published 2023)", "key": {"[1]": {"assay": "Pre-clinical GLP and non-GLP toxicity and safety studies", "format": "in vivo", "method": "(§1) Various pre-clinical GLP (Good Laboratory Practice) and non-GLP studies were performed with the compound of Formula E. These included 7-day and 28- days studies on rats and dogs, acute toxicity in rats, mice and dogs. The effect of the compound of Formula E on respiratory function, nervous system and cardiovascular system, bacterial mutation, metabolism, CaCo2 permeability, protein binding and cytochrome effect was also studied."}, "SARS-CoV-2 [2]": {"system": "SARS-CoV-2", "assay": "Anti SARS-CoV-2 IC50 estimation by qRT-PCR in VeroE6 cells", "format": "cell-based", "conditions": "Severe acute respiratory syndrome coronavirus 2, Vero C1008"}, "SARS-CoV-2 [3]": {"system": "SARS-CoV-2", "assay": "Antiviral screening by qRT-PCR in VeroE6 cells", "format": "cell-based", "conditions": "Severe acute respiratory syndrome coronavirus 2, Vero C1008, 10 μM"}, "[4]": {"assay": "Neutral Red toxicity assay, uninfected cultures", "format": "cell-based", "conditions": "African green monkey, Vero 76 cells (uninfected monolayers), cell-inhibitory", "method": "Confluent or near-confluent cell culture monolayers of Vero 76 cells were prepared in 96-well disposable microplates the day before testing. Cells were maintained in MEM (Minimum Essential Medium Eagle) supplemented with 5% FBS (Fetal Bovine Serum). For antiviral assays the same medium was used but with FBS reduced to 2% and supplemented with 50-μg/ml gentamicin.\nCompounds were dissolved in DMSO, saline or the diluent. […] The test compound was prepared at four serial log10 concentrations, usually 0.1, 1.0, 10, and 100 μg/ml or μM. Lower concentrations were used when insufficient compound was supplied. Five microwells were used per dilution: three for infected cultures and two for uninfected toxicity cultures. Controls for the experiment consisted of six microwells that were infected and not treated (virus controls) and six that were untreated and uninfected (cell controls) on every plate. A known active drug was tested in parallel as a positive control drug using the same method as was applied for test compounds. The positive control was tested with every test run.\nGrowth media was removed from the cells and the test compound was applied in 0.1 ml volume to wells at 2× concentration. Virus, normally at ˜60 CCID50 (50% cell culture infectious dose) in 0.1 ml volume is added to the wells designated for virus infection. Medium devoid of virus was placed in toxicity control wells and cell control wells. […] The plates were then stained with 0.011% neutral red for approximately two hours at 37° C. in a 5% CO2 incubator. The neutral red medium was removed by complete aspiration, and the cells may be rinsed 1× with phosphate buffered solution (PBS) to remove residual dye. The PBS was completely removed, and the incorporated neutral red was eluted with 50% Sorensen's citrate buffer/50% ethanol for at least 30 minutes. Neutral red dye penetrates into living cells, thus, the more intense the red color, the larger the number of viable cells present in the wells. The dye content in each well was quantified using a spectrophotometer at 540 nm wavelength. The dye content in each set of wells was converted to a percentage of dye present in untreated control wells using a Microsoft Excel computer-based spreadsheet and normalized based on the virus control. The 50% effective (EC50, virus-inhibitory) concentrations and 50% cytotoxic (CC50, cell-inhibitory) concentrations are then calculated by regression analysis. The quotient of CC50 divided by EC50 gives the selectivity index (SI) value."}, "V-ATPase": {"system": "V-ATPase", "assay": "V-ATPase ELISA (Human V-Type Proton ATPase ELISA kit) on treated MDAMB231 cells", "format": "cell-based", "conditions": "100 nM (0.1 μM)/10,000 cells, 48 hours", "method": "An ELISA test was performed using Human V-Type Proton ATPase ELISA kit (My BioSource Catlog no: MBS911862) to determine the V-ATPase inhibitory effect of the compounds of the present invention.\nProcedure: 1.0 million cells of MDAMB231 (cell line rich in V-ATPase) were plated on 60 mm plates for 24 hours at 37° C. and 5% CO2. The cells were treated with the test compounds (Formula A to U) at a concentration of 100 nM (0.1 μM)/10,000 cells and incubated for 48 hours. After incubation the supernatant was discarded, the cells were washed with D.P.B.S. (Dulbecco's phosphate-buffered saline), scraped and stored at −80° C. for 48 hours. The cells were thawed, vortexed, homogenized for 7 minutes, followed by centrifugation for 3 minutes at 3000 R.P.M. The supernatant was taken for V-ATPase Assay.\nStandards and samples were pipetted into the wells. Antibody specific for V-ATPase was pre-coated onto a microplate. Any V-ATPase present in the standard /sample would get bound by the immobilized antibody. After the incubation period any unbound substances were removed by washing and a biotin-conjugated antibody specific for V-ATPase was added to the wells and plates were re-incubated at 37° C. and 5% CO2. After washing, avidin conjugated Horseradish Peroxidase (HRP) was added to the wells. Following a wash to remove any unbound avidin-enzyme reagent, a substrate solution was added to the wells and colour developed was in proportion to the amount of V-ATPase bound in the initial step. The colour development was stopped, and the optical density was measured at 450 nm spectrophotometrically. The concentration of V-ATPase was then calculated by substituting the optical density in the regression equation obtained from the standards. Percent (%) reduction in V-ATPase was calculated by subtracting the amount of V-ATPase obtained from the untreated/conc. of V-ATPase in untreated X100."}, "Bacterial mutation study": {"assay": "Bacterial mutation study", "method": "as §1"}, "[5]": {"assay": "Cytotoxicity by Hoechst 33342 / Sytox orange staining", "format": "cell-based", "conditions": "African green monkey, Vero E6 cells", "method": "The assay was done in a 96 well plate format in 3 wells for each sample. 1×10e4 Vero E6 cells were plated per well and incubated at 37° C. overnight for monolayer formation. Next day, cells were incubated with the test substance (TS) at the indicated concentration with final DMSO concentration being 0.5%. The Control cells were incubated with 0.5% DMSO only. 24 and 48 hours later, cells were stained with Hoechst 33342 and Sytox orange dye. Images were taken at 10×, 16 images per well, which covers 90% of the well area using ImageXpress Microconfocal (Molecular Devices). Hoechst 33342 nucleic acid stain is a popular cell-permanent nuclear counterstain that emits blue fluorescence when bound to dsDNA. It stains all the live and dead cells. Sytox orange dye stains the nucleic acid in the cells with compromised membranes. This stain is an indicator of cell death. First, the software will count total number of cells in the Hoechst image. In the Sytox image, it will count, among Hoechst positive cells, how many cells are positive for Sytox."}, "SARS-CoV-2 [6]": {"system": "SARS-CoV-2", "assay": "Neutral Red reduction of virus-induced cytopathic effect (primary CPE assay) in Vero 76 cells", "format": "cell-based", "conditions": "Severe acute respiratory syndrome coronavirus 2, virus-inhibitory"}}, "note": "Where two headings read alike, the source gives them in different places.", "data": [{"smiles": "COC1COC(Oc2ccc(-c3ccc4c(c3)OCO4)c3ccccc23)C(O)C1OC", "note": "(stereo not drawn) [Compound of Formula E, 2-(1-(benzo[d][1,3]dioxol-5-yl)naphthalen-4-yloxy)-tetrahydro-4,5-dimethoxy-2H-pyran-3-ol]", "values": [{"measurement": "toxic or adverse effect at higher dose", "setting": "[1]; 2000 mg/kg in rats, mice and dogs", "result": "did not show any toxic or adverse effect"}, {"measurement": "toxicity in pre-clinical studies", "setting": "[1]; 7-day and 28-days studies on rats and dogs, acute toxicity in rats, mice and dogs", "result": "non-toxic"}, {"measurement": "clastogenicity", "setting": "[1]; in vivo", "result": "non-clastogenic"}, {"measurement": "effect on the respiratory, nervous and cardiovascular system", "setting": "[1]; in vivo", "result": "no effect"}, {"measurement": "IC50", "setting": "SARS-CoV-2 [2]; VeroE6, MOI 0.01, 48 hours, qRT-PCR E gene, read-out: IC50 value (μM) E gene", "result": 0.571, "unit": "µM"}, {"measurement": "IC50", "setting": "SARS-CoV-2 [2]; VeroE6, MOI 0.01, 48 hours, qRT-PCR N gene, read-out: IC50 value (μM) N gene", "result": 0.586, "unit": "µM"}, {"measurement": "IC50", "setting": "SARS-CoV-2 [2]; conclusion statement, read-out: anti-SARS-CoV-2 activity IC50", "result": "< 10", "unit": "µM"}, {"measurement": "inhibition at 10 µM", "setting": "SARS-CoV-2 [3]; 24 hours post infection, E gene, read-out: % inhibition of virus replication 24 hours post infection E", "result": 75.4, "unit": "%"}, {"measurement": "inhibition at 10 µM", "setting": "SARS-CoV-2 [3]; 24 hours post infection, N gene, read-out: % inhibition of virus replication 24 hours post infection N", "result": 81.3, "unit": "%"}, {"measurement": "inhibition at 10 µM", "setting": "SARS-CoV-2 [3]; 48 hours post infection, E gene, read-out: % inhibition of virus replication 48 hours post infection E", "result": 99.5, "unit": "%"}, {"measurement": "inhibition at 10 µM", "setting": "SARS-CoV-2 [3]; 48 hours post infection, N gene, read-out: % inhibition of virus replication 48 hours post infection N", "result": 99.7, "unit": "%"}, {"measurement": "CC50", "setting": "[4]", "result": 2.5, "unit": "µg/mL"}, {"measurement": "reduction of V-ATPase (%)", "setting": "V-ATPase", "result": 15.6, "unit": "%"}, {"measurement": "mutagenicity", "setting": "Bacterial mutation study", "result": "non-mutagenic"}, {"measurement": "viability at 24 h, 10 µM", "setting": "[5]; 24 hours, read-out: % Cell viability 24 hours", "result": 99.6, "unit": "%"}, {"measurement": "viability at 48 h, 10 µM", "setting": "[5]; 48 hours, read-out: % Cell viability 48 hours", "result": 77.8, "unit": "%"}, {"measurement": "logP", "setting": "physchem", "result": "~4"}, {"measurement": "EC50", "setting": "SARS-CoV-2 [6]", "result": 0.35, "unit": "µg/mL"}]}]}
